Experimental data published in BindingDB's records for doi:10.1021/acs.jmedchem.0c01316 (Agricultural University of Athens, 2020).
pIC50: −log10 of the molar value.

Assay: Inhibition of human RANKL-induced osteoclastogenesis in RANKL cultured mouse bone marrow cells assessed as reduction in RANKL/M-CSF-induced TRAP activity preincubated with RANKL for 1 hr followed by cell addition and subsequent media replenishment every 48 hrs for 4 days

Compound | pIC50
CN(CCN(C)C(=O)c1cn(S(=O)(=O)c2ccccc2)c2ccccc12)C(=O)c1coc2ccccc2c1=O | 5.54
CN(CCN(C)S(=O)(=O)c1ccc(C#N)cc1)C(=O)c1cn(S(=O)(=O)c2cccc([N+](=O)[O-])c2)c2ccccc12 | 5.70
CN(CCN(C)S(=O)(=O)c1cccc([N+](=O)[O-])c1)C(=O)c1cn(S(=O)(=O)c2cccc([N+](=O)[O-])c2)c2ccccc12 | 5.72
CN(CCN(C)S(=O)(=O)c1ccccc1)C(=O)c1cn(S(=O)(=O)c2cccc([N+](=O)[O-])c2)c2ccccc12 | 5.57
Cc1cc2occ(CN(C)CCN(C)Cc3cn(-c4cccc(C(F)(F)F)c4)c4ccccc34)c(=O)c2cc1C | 6.00
O=C(c1cn(S(=O)(=O)c2cccc([N+](=O)[O-])c2)c2ccccc12)N1CCN(S(=O)(=O)c2ccccc2)CC1 | 5.85
CN(CCN(C)C(=O)c1cn(S(=O)(=O)c2cccc([N+](=O)[O-])c2)c2ccccc12)C(=O)c1coc2ccccc2c1=O | 5.29
CN(CCN(C)Cc1cn(S(=O)(=O)c2ccccc2)c2ccccc12)Cc1coc2ccccc2c1=O | 5.60
CN(CCN(C)C(=O)c1cn(-c2cccc([N+](=O)[O-])c2)c2ccccc12)C(=O)c1coc2ccccc2c1=O | 5.73
N#Cc1ccc(S(=O)(=O)N2CCN(C(=O)c3cn(S(=O)(=O)c4cccc([N+](=O)[O-])c4)c4ccccc34)CC2)cc1 | 5.29
O=C(c1cn(S(=O)(=O)c2cccc([N+](=O)[O-])c2)c2ccccc12)N1CCN(S(=O)(=O)c2cccc([N+](=O)[O-])c2)CC1 | 5.19
